Reference: patent US12173002B2, “PRMT5 inhibitors and methods of use” (SHANGHAI APEIRON THERAPEUTICS COMPANY LIMITED, priority 2022, dated 2024)
pIC50: −log10 of the molar value.

Key:
[1] = tested on: HCT-116 MTAP(−/−) deficient cells; assay: Inhibitory activity on proliferation of HCT-116 MTAP(−/−) deficient cells (Cell-Titer Glo, 8 days); format: cell-based; conditions: Homo sapiens, HCT-116, 192 h, 8 days incubation
Procedure: Test 1: Compound's inhibitory activity on proliferation of HCT-116 MTAP(−/−) deficient cells. P Materials and Cells: HCT-116 MTAP(−/−) deficient cells obtained from Kyinno Bio (China); RPMI-1640 medium, fetal bovine serum, and penicillin-streptomycin purchased from Thermo Fisher Scientific (America); 384-well plates from PerkinElmer (America); Cell-Titer Glo assay kit from Promega (America).
Cell Culture: HCT116 MTAP(−/−) deficient cells were cultured in RPMI 1640 medium containing 10% fetal bovine serum and 1% penicillin-streptomycin at 37° C., 5% CO2. Only cells in logarithmic growth phase were used for experiments.
(§1) Cell Proliferation Inhibition Assay: The compound's inhibitory activity on HCT-116 MTAP(−/−) deficient cells was assessed using the Cell-Titer Glo assay kit. Adjusting cell concentration, 40 μL was seeded into a 384-well plate and cultured overnight at 37° C., 5% CO2. Each well received 40 nL of the compound, achieving concentrations from 0 to 10,000 nM (starting concentration 10,000 nM, 3-fold dilution, 10 points), with 0.1% DMSO. The cell plate was incubated for 8 days at 37° C., 5% CO2. Cell-Titer Glo reagent (40 μL) was added to measure cell viability.

[2] = tested on: HCT-116 MTAP wild-type cells; assay: Inhibitory activity on proliferation of HCT-116 MTAP wild-type cells (Cell-Titer Glo, 8 days); format: cell-based; conditions: Homo sapiens, HCT-116, 192 h, 8 days incubation
Procedure: Test 2: Compound's inhibitory activity on proliferation of HCT-116 MTAP wild-type cells.
Materials and Cells: HCT-116 MTAP wild-type cells obtained from Kyinno Bio (China); RPMI-1640 medium, fetal bovine serum, and penicillin-streptomycin purchased from Thermo Fisher Scientific (America); 384-well plates from PerkinElmer (America); Cell-Titer Glo assay kit from Promega (America).
Cell Culture: HCT116 MTAP wild-type cells were cultured in RPMI 1640 medium containing 10% fetal bovine serum and 1% penicillin-streptomycin at 37° C., 5% CO2. Only cells in logarithmic growth phase were used for experiments.
as §1, with “MTAP wild-type” for “MTAP(−/−) deficient”

[3] = Mouse pharmacokinetic experiment; format: in vivo; conditions: male, ICR mice, plasma
Procedure: II. Mouse Pharmacokinetic Experiment 1. Test Compounds
(§2) The compounds used in this experiment are specific embodiments of the present invention, with reference to compound AMG473 as an example from Amgen's patent WO 2022/169948A1, identified as example 473.
ICR male mice, N=3/group; sourced from Zhejiang Vital River Laboratory Animal Technology Co., Ltd.
3. Drug Preparation and Administration
(§3) Single oral (PO) administration to ICR mice: Compounds were dissolved in dimethyl sulfoxide, added to polyethylene glycol 400 and sterile water, and then adjusted to a clear solution with a small amount of 1 mol/L hydrochloric acid. After overnight fasting, the mice were orally gavaged with a dose of 10 mg/kg.
as §3, with “intravenous (IV)” for “oral (PO)”, “received tail vein injections” for “were orally gavaged”, “3” for “10”
Approximately 30 μL/time point blood samples were collected via the tail vein. Potassium ethylenediaminetetraacetate was used as an anticoagulant, and samples were centrifuged at 4000 g/min for 5 minutes at 4° C. within 1 hour. Blood sampling time points were 0.0833 (IV), 0.25, 0.5, 1, 2, 4, 6, 8, 24 hours. Samples were stored in a −20° C. freezer.
Plasma samples (30 μL, 10 μL sample+20 μL blank plasma) were mixed with 200 μL ice-cold acetonitrile containing internal standards. After vortexing for 30 seconds, samples were centrifuged at 4000 g/min for 20 minutes. One hundred microliters of the supernatant were transferred to a 96-well plate, followed by the addition of 200 μL ultrapure water. After vortexing for 30 seconds, 5 μL or 10 μL were injected into LC-MS/MS for analysis.

hERG ion channel = hERG ion channel (Homo sapiens, UniProt Q12809); assay: hERG ion channel inhibition experiment (manual patch clamp, HEK293 cells); format: cell-based; conditions: HEK293 cells stably expressing hERG, whole-cell patch clamp, n=2
Procedure: III. hERG Ion Channel Inhibition Experiment
as §2
2. Cell Line and Cell Culture
Stably expressing hERG ion channel HEK293 cell line (Catalog: K1236) was purchased from Invitrogen. This cell line was cultured in a medium containing 85% DMEM, 10% dialyzed fetal bovine serum, 0.1 mM non-essential amino acid solution, 100 U/mL penicillin-streptomycin solution, 25 mM HEPES, 5 μg/mL blasticidin, and 400 μg/mL geneticin. When the cell density reached 40%˜80% of the culture dish area, digestion was performed using trypsin, and cells were passaged three times per week. Before the experiment, cells were cultured at a density of 5×10′ in 3.5 cm culture dishes, induced with […] Doxycycline for 48 hours. Subsequently, cells were digested and seeded onto slides for subsequent manual patch clamp experiments.)
3. Experimental Procedure
• 1) Place glass slides containing HEK293 cells in the perfusion chamber of the micro-manipulation station. • 2) Under an Olympus IX71 or IX73 inverted microscope, position suitable cells in the central field of view using a ×10 objective. Locate the tip of the glass electrode in the central field. Use the micromanipulator to lower the electrode while adjusting the coarse focus spiral to slowly approach the cell. • 3) When approaching the cell rapidly, switch to a ×40 objective for observation. Fine-tune the electrode approach using the micromanipulator to gradually reach the cell's surface. • 4) Apply negative pressure to establish 1GQ seal between the electrode tip and the cell membrane. • 5) Compensate for the transient capacitance current Cfast under voltage clamp mode. Then, repeat the brief negative pressure application for membrane rupture, ultimately reaching the whole-cell recording mode. • 6) Under voltage clamp at −60 mV, compensate for slow capacitance current Cslow, cell membrane capacitance (Cm), and input membrane resistance (Ra). • 7) Once the cell is stable, change the clamping voltage to −90 mV, set the sampling frequency to 20 kHz, and the filtering frequency to 10 kHz. Leak current detection conditions involve changing the clamping voltage to −80 mV for a duration of 500 ms. • 8) The hERG current testing method is as follows: Apply a 4.8-second depolarization command voltage to depolarize the membrane potential from −80 mV to +30 mV, then instantly apply a 5.2-second repolarization voltage to reduce the membrane potential to −50 mV to remove channel inactivation, allowing observation of the hERG tail current. The peak of the tail current represents the size of the hERG current. • 9) The hERG current […] is continuously recorded for 120 seconds before administration to assess the stability of the tested cells in producing hERG currents. Only stable cells within an acceptable range are eligible for subsequent compound testing. • 10) Testing the inhibitory effect of the test compound on hERG current: First, determine the baseline of hERG current obtained in extracellular fluid containing 0.1% DMSO. After maintaining stable hERG current for at least 5 minutes, sequentially perfuse the solution containing the test compound around the cells from low to high concentrations. After each perfusion, wait for about 5 minutes to allow the compound to act on the cells and simultaneously record hERG currents. Record the last 5 hERG current values after the recorded current stabilizes, and take their average as the final current value at a specific concentration. […] Meanwhile, positive compound dofetilide is synchronously detected before and after the end of the test drug experiment using the same patch clamp system to ensure the reliability and sensitivity of the entire detection system. The above test steps will be repeated on two separate test cells (n=2). 4. Data Analysis […]

Chain of hERG ion channel (Q12809 whole entry): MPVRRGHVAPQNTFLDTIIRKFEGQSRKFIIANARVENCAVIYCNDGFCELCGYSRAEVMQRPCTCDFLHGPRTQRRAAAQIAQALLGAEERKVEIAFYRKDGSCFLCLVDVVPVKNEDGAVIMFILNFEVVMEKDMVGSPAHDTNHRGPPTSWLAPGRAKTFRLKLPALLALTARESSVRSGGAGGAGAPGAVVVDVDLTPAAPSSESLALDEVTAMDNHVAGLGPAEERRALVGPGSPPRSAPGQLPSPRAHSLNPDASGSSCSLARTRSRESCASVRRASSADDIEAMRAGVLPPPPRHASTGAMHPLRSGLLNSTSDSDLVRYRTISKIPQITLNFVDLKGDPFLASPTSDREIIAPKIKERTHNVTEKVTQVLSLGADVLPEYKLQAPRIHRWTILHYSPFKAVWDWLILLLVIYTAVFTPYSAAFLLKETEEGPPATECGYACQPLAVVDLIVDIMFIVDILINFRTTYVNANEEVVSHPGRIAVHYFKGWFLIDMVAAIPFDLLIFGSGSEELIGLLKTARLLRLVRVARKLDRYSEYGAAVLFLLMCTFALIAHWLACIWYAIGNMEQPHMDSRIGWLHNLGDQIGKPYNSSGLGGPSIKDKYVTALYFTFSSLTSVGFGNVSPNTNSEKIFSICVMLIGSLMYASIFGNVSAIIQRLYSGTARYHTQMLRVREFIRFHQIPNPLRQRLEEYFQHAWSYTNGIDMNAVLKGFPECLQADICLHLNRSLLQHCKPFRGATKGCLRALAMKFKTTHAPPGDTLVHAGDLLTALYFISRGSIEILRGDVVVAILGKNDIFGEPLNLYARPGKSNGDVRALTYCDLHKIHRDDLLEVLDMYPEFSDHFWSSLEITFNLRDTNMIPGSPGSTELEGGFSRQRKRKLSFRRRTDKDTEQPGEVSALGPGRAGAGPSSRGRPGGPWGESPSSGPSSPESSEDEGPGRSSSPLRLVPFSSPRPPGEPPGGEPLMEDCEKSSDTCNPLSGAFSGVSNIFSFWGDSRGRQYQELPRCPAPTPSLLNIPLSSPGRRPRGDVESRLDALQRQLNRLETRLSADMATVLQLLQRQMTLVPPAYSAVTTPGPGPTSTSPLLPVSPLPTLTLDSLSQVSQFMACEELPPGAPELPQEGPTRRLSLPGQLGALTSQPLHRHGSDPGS

With CN(C(=O)c1ccc2nc(N)c3cncn3c2c1)[C@@H]1COc2cc(S(F)(F)(F)(F)F)ccc21 (single isomer, unassigned) [Example 104] as the compound, how does the pIC50 [1] read?
Its pIC50 is 8.34.

And the pIC50 [2]?
The pIC50 was 6.23.

And the AUC(0-t) ([3]; IV 3 mg/kg)?
The AUC(0-t) was 10500 ng·h/mL.

And the AUC(0-t) ([3]; PO 10 mg/kg)?
The AUC(0-t) was 26500 ng·h/mL.

What about the half-life ([3]; IV 3 mg/kg) of the same compound?
Its half-life is 6.1 h.

What about the half-life ([3]; PO 10 mg/kg) of the same compound?
Its half-life is 5.02 h.

What about the bioavailability ([3]; PO 10 mg/kg vs IV 3 mg/kg, read-out: Bioavailability F) of the same compound?
Its bioavailability is 74%.

And the pIC50 (hERG ion channel)?
Its pIC50 is 5.82.

For CN(C(=O)c1cc2c(cn1)nc(N)c1cncn12)[C@@H]1COc2cc(C(F)(F)F)ccc21 [Example 4, (S)-4-amino-N-methyl-N-(6-(trifluoromethyl)-2,3-dihydrobenzofuran-3-yl)imidazo[1,5-a] pyrido[3,4-e] pyrazine-8-carboxamide], which AUC(0-t) ([3]; IV 3 mg/kg) is on record?
The AUC(0-t) was 8090 ng·h/mL.

And the AUC(0-t) ([3]; PO 10 mg/kg)?
The AUC(0-t) was 21000 ng·h/mL.

And the half-life ([3]; IV 3 mg/kg)?
Its half-life is 4.06 h.

And the half-life ([3]; PO 10 mg/kg)?
The half-life was 2.67 h.

And the pIC50 (hERG ion channel)?
The pIC50 was 5.28.

With [2H]C([2H])([2H])N(C(=O)c1ccc2nc(N)c3cncn3c2c1)[C@@H]1COc2cc(C(F)(F)F)ccc21 [Example 16, (S)-4-amino-N-(methyl-d3)-N-(6-(trifluoromethyl)-2,3-dihydrobenzofuran-3-yl)imidazo[1,5-a] quinoxaline-8-carboxamide] as the compound, how does the AUC(0-t) ([3]; IV 3 mg/kg) read?
Its AUC(0-t) is 9710 ng·h/mL.

And the AUC(0-t) ([3]; PO 10 mg/kg)?
The AUC(0-t) was 42500 ng·h/mL.

What about the half-life ([3]; IV 3 mg/kg) of the same compound?
Its half-life is 3.65 h.

And the half-life ([3]; PO 10 mg/kg)?
The half-life was 3.31 h.

And the pIC50 (hERG ion channel)?
The pIC50 was 5.64.

For [2H]C([2H])([2H])N(C(=O)c1cc2c(cc1F)nc(N)c1cncn12)[C@@H]1COc2cc(C(F)(F)F)ccc21 [Example 41, (S)-4-amino-7-fluoro-N-(methyl-d3)-N-(6-(trifluoromethyl)-2,3-dihydrobenzofuran-3-yl)imidazo[1,5-a] quinoxaline-8-carboxamide], which AUC(0-t) ([3]; IV 3 mg/kg) is on record?
Its AUC(0-t) is 5420 ng·h/mL.

What about the AUC(0-t) ([3]; PO 10 mg/kg) of the same compound?
The AUC(0-t) was 46300 ng·h/mL.

What about the half-life ([3]; IV 3 mg/kg) of the same compound?
Its half-life is 4.3 h.

And the half-life ([3]; PO 10 mg/kg)?
Its half-life is 4.12 h.

And the pIC50 (hERG ion channel)?
The pIC50 was 5.09.

For CN(C(=O)c1ccc2nc(N)c3cncn3c2c1)[C@@H]1COc2cc(C(F)(F)F)ccc21 [Example 107, (S)-4-amino-N-methyl-N-(6-(trifluoromethyl)-2,3-dihydrobenzofuran-3-yl)imidazo[1,5-a] quinoxaline-8-carboxamide], which AUC(0-t) ([3]; IV 3 mg/kg) is on record?
The AUC(0-t) was 11200 ng·h/mL.

And the AUC(0-t) ([3]; PO 10 mg/kg)?
Its AUC(0-t) is 44100 ng·h/mL.

What about the half-life ([3]; IV 3 mg/kg) of the same compound?
The half-life was 4.53 h.

What about the half-life ([3]; PO 10 mg/kg) of the same compound?
Its half-life is 4.56 h.

What about the pIC50 (hERG ion channel) of the same compound?
Its pIC50 is 5.35.

Which AUC(0-t) ([3]; IV 3 mg/kg) does the source give for CN(C(=O)c1ccc2nc(N)c3cncn3c2c1)[C@@H]1COc2cc(C(F)(F)C(F)(F)F)ccc21 [Example 130, (S)-4-amino-N-methyl-N-(6-(perfluoroethyl)-2,3-dihydrobenzofuran-3-yl)imidazo[1,5-a] quinoxaline-8-carboxamide] here?
The AUC(0-t) was 10800 ng·h/mL.

What about the AUC(0-t) ([3]; PO 10 mg/kg) of the same compound?
The AUC(0-t) was 28300 ng·h/mL.

What about the half-life ([3]; IV 3 mg/kg) of the same compound?
The half-life was 4.5 h.

And the half-life ([3]; PO 10 mg/kg)?
The half-life was 3.34 h.

What about the pIC50 (hERG ion channel) of the same compound?
Its pIC50 is 5.87.
